In DBAASP:
In brackets after ≈: the same amount, converted by molar mass.

Experiments:
Test in all cases: ≥ marks a high value that may be exact or a test limit, other limits are often not marked, values filed in µg/mL are converted to µM
[1] = tested on: Bacillus subtilis NBRC 3009
[2] = tested on: Staphylococcus aureus NBRC 13276
[3] = tested on: Escherichia coli NBRC 3972
[4] = tested on: Candida albicans
[5] = tested on: Staphylococcus aureus MR
[6] = tested on: Pseudomonas aeruginosa ATCC 27853
[7] = tested on: Staphylococcus aureus ATCC 49476
[8] = tested on: Staphylococcus aureus NCTC 12981
[9] = tested on: Escherichia coli NCTC 10418
[10] = tested on: Acinetobacter baumannii ATCC 17978
[11] = tested on: Leuconostoc lactis
[12] = tested on: Staphylococcus aureus 15
[13] = tested on: Escherichia coli UB1005
[14] = tested on: Bacillus cereus C737
[15] = tested on: Staphylococcus aureus
[16] = tested on: Staphylococcus aureus ATCC 9144
[17] = tested on: Enterococcus faecalis NCTC 775
[18] = tested on: Staphylococcus epidermidis
[19] = tested on: Micrococcus luteus
[20] = tested on: Listeria innocua
[21] = tested on: Pasteurella multocida
[22] = tested on: Pseudomonas aeruginosa PAO1
[23] = tested on: Escherichia coli
[24] = tested on: Pseudomonas aeruginosa NCTC 13437
[25] = tested on: Candida albicans NCPF 3179
[26] = tested on: Escherichia coli NCTC 12923
[27] = tested on: Klebsiella pneumoniae NCTC 13368
[28] = tested on: Bacillus cereus
[29] = tested on: Streptococcus uberis
[30] = tested on: Enterococcus faecalis NCTC 12201
[31] = tested on: Batrachochytrium dendrobatidis
[32] = tested on: Bifidobacterium longum subsp. infantis
[33] = tested on: Klebsiella aerogenes ATCC 13048
[34] = tested on: Acinetobacter baumannii ATCC 7978
[35] = tested on: Staphylococcus aureus MW2
[36] = tested on: Staphylococcus aureus ATCC 29231
[37] = tested on: Escherichia coli ATCC 25922
[38] = tested on: Staphylococcus aureus ATCC 29213
[39] = tested on: Cryptococcus neoformans ATCC 32264
[40] = tested on: Yersinia enterocolitica
[41] = tested on: Salmonella sp.
[42] = tested on: Staphylococcus aureus ATCC 43300
[43] = tested on: Salmonella enterica subsp. enterica serovar Enteritidis
[44] = tested on: Candida albicans ATCC 10231

With CC[C@H](C)[C@H](NC(=O)[C@H](C)NC(=O)[C@H](CO)NC(=O)[C@@H](NC(=O)[C@H](CC(C)C)NC(=O)CNC(=O)CNC(=O)[C@@H](NC(=O)[C@H](CC(C)C)NC(=O)[C@H](CO)NC(=O)[C@@H]1CCCN1C(=O)[C@H](CC(C)C)NC(=O)[C@H](Cc1ccccc1)NC(=O)[C@H](Cc1ccccc1)NC(=O)[C@@H](N)Cc1ccccc1)[C@@H](C)CC)C(C)C)C(=O)N[C@@H](CCCCN)C(N)=O [FFFLPSLIGGLVSAIK] the MIC [1] was 1.8 µM (≈ 3.08 µg/mL), the MIC [2] was ≥ 35.4 µM and the MIC [3] was ≥ 100 µM.
CC[C@H](C)[C@H](NC(=O)[C@H](C)NC(=O)[C@H](CCCCN)NC(=O)CNC(=O)[C@H](C)NC(=O)[C@H](CO)NC(=O)[C@H](Cc1ccccc1)NC(=O)[C@H](CC(C)C)NC(=O)CNC(=O)CNC(=O)[C@@H](NC(=O)[C@@H](NC(=O)[C@H](Cc1cnc[nH]1)NC(=O)[C@H](Cc1cnc[nH]1)NC(=O)[C@@H](NC(=O)[C@@H](N)Cc1ccccc1)[C@@H](C)CC)[C@@H](C)CC)[C@@H](C)CC)C(=O)N[C@@H](Cc1cnc[nH]1)C(=O)N[C@@H](CO)C(=O)N[C@@H](CC(C)C)C(=O)N[C@H](C(=O)N[C@@H](Cc1cnc[nH]1)C(=O)N[C@@H](CCCN=C(N)N)C(=O)N[C@@H](CCCN=C(N)N)C(=O)N[C@@H](CCCN=C(N)N)C(=O)N[C@@H](CCCN=C(N)N)C(=O)O)[C@@H](C)CC [FIHHIIGGLFSAGKAIHSLIHRRRR] showed an MIC [4] of 88.5 µM (≈ 256 µg/mL), an MIC [5] of 11.1 µM (≈ 32 µg/mL) and an MIC [6] of 88.5 µM (≈ 256 µg/mL). It also gave an MIC [7] of 11.1 µM (≈ 32 µg/mL).
In the case of NCCCC[C@H](NC(=O)[C@H](Cc1ccccc1)NC(=O)[C@H](CCCCN)NC(=O)[C@@H](N)Cc1ccccc1)C(=O)N[C@@H](Cc1ccccc1)C(N)=O [FKFKF], the MIC [8] is reported as ≥ 179 µM and the MIC [9] is reported as ≥ 179 µM.
For CC[C@H](C)[C@H](NC(=O)[C@H](CC(=O)O)NC(=O)[C@H](Cc1ccccc1)NC(=O)[C@H](CC(C)C)NC(=O)CN)C(=O)N[C@H](C(=O)N[C@@H](CCCCN)C(=O)N[C@@H](CCCCN)C(=O)N[C@H](C(=O)N[C@H](C(=O)NCC(=O)N[C@@H](C)C(=O)N[C@@H](Cc1ccccc1)C(=O)NCC(=O)N[C@@H](CO)C(=O)N[C@@H](CC(C)C)C(N)=O)C(C)C)C(C)C)C(C)C [GLFDIVKKVVGAFGSL], the MIC [10] was 4.85 µM (≈ 8 µg/mL), the MIC [11] was 7.27 µM (≈ 12 µg/mL) and the MIC [12] was 19.4 µM (≈ 32 µg/mL). For the same compound, the MIC [13] was ≥ 38.8 µM, the MIC [14] was ≥ 77.6 µM and the MIC [15] was 30.3 µM (≈ 50 µg/mL). The MIC [16] was 4.85 µM (≈ 8 µg/mL), the MIC [17] was 27.4 µM (≈ 45.2 µg/mL) and the MIC [18] was ≥ 60.6 µM. For the same compound, the MIC [19] was ≥ 60.6 µM, the MIC [20] was 30.3 µM (≈ 50 µg/mL) and the MIC [21] was ≥ 60.6 µM. For the same compound, the MIC [22] was > 77.6 µM, the MIC [23] was > 60.6 µM and the MIC [24] was ≥ 77.6 µM. The MIC [25] was 9.7 µM (≈ 16 µg/mL), the MIC [26] was 9.7 µM (≈ 16 µg/mL) and the MIC [27] was ≥ 38.8 µM. The MIC [28] was 30.3 µM (≈ 50 µg/mL), the MIC [29] was ≥ 60.6 µM and the MIC [30] was ≥ 38.8 µM.
With CC[C@H](C)[C@H](NC(=O)[C@H](CC(=O)O)NC(=O)[C@H](CC(C)C)NC(=O)[C@H](CC(C)C)NC(=O)CN)C(=O)N[C@H](C(=O)N[C@@H](CCCCN)C(=O)N[C@@H](CCCCN)C(=O)N[C@H](C(=O)N[C@H](C(=O)NCC(=O)N[C@@H](C)C(=O)N[C@@H](Cc1ccccc1)C(=O)NCC(=O)N[C@@H](CO)C(=O)N[C@@H](CC(C)C)C(N)=O)C(C)C)C(C)C)C(C)C [GLLDIVKKVVGAFGSL] the MIC [11] was 3.71 µM (≈ 6 µg/mL), the MIC [31] was ≥ 200 µM and the MIC [15] was > 61.9 µM. The MIC [18] was 30.9 µM (≈ 50 µg/mL), the MIC [19] was ≥ 61.9 µM and the MIC [20] was 3.71 µM (≈ 6 µg/mL). The MIC [21] was ≥ 61.9 µM, the MIC [23] was > 61.9 µM and the MIC [28] was 30.9 µM (≈ 50 µg/mL). For the same compound, the MIC [29] was ≥ 61.9 µM.
For CC[C@H](C)[C@H](NC(=O)[C@H](CCC(N)=O)NC(=O)[C@H](Cc1cnc[nH]1)NC(=O)[C@@H](NC(=O)[C@@H]1CCCN1C(=O)[C@H](CC(N)=O)NC(=O)[C@H](CC(C)C)NC(=O)[C@@H](N)CC(C)C)[C@@H](C)O)C(=O)N[C@@H](Cc1ccc(O)cc1)C(=O)N1CCC[C@H]1C(=O)N[C@H](C(=O)N[C@H](C(=O)N[C@@H](CCC(N)=O)C(=O)N1CCC[C@H]1C(=O)N[C@@H](CC(C)C)C(=O)N[C@@H](C)C(=O)N1CCC[C@H]1C(=O)N[C@H](C(=O)N[C@@H](Cc1cnc[nH]1)C(=O)N[C@@H](CC(N)=O)C(=O)N1CCC[C@H]1C(=O)N[C@H](C(=O)N[C@@H](CO)C(=O)O)[C@@H](C)CC)C(C)C)[C@@H](C)O)C(C)C [LLNPTHQIYPVTQPLAPVHNPIS], the MIC [15] was > 1180 µM, the MIC [23] was > 1180 µM and the MIC [32] was ≥ 1180 µM.
In the case of CC[C@H](C)[C@H](NC(=O)[C@H](CCCCN)NC(=O)[C@H](Cc1c[nH]c2ccccc12)NC(=O)[C@@H](N)CC(C)C)C(=O)NCC(=O)N[C@@H](CCCCN)C(=O)N[C@@H](CCCCN)C(=O)N[C@H](C(=O)N[C@@H](Cc1c[nH]c2ccccc12)C(=O)N[C@@H](CCCN=C(N)N)C(=O)N[C@H](C(=O)NCC(=O)O)C(C)C)[C@@H](C)CC [LWKIGKKIWRVG], the MIC [33] is reported as ≥ 86.3 µM, the MIC [34] is reported as ≥ 86.3 µM and the MIC [35] is reported as ≥ 86.3 µM. For the same compound, the MIC [36] was ≥ 86.3 µM.
In the case of NC(=O)CC[C@H](NC(=O)[C@H](Cc1c[nH]c2ccccc12)NC(=O)[C@H](Cc1c[nH]c2ccccc12)NC(=O)[C@H](CCCN=C(N)N)NC(=O)[C@H](CCCN=C(N)N)NC(=O)[C@H](Cc1c[nH]c2ccccc12)NC(=O)[C@H](CCC(N)=O)NC(=O)[C@@H](N)CCCN=C(N)N)C(=O)N[C@@H](CCCN=C(N)N)C(N)=O [RQWRRWWQR], the MIC [37] is reported as 17.2 µM (≈ 25 µg/mL), the MIC [38] is reported as 34.3 µM (≈ 50 µg/mL) and the MIC [39] is reported as 12.5 µM (≈ 18.2 µg/mL). It also gave an MIC [40] of 17.2 µM (≈ 25 µg/mL), an MIC [41] of 17.2 µM (≈ 25 µg/mL) and an MIC [42] of 17.2 µM (≈ 25 µg/mL). The MIC [23] was 8.58 µM (≈ 12.5 µg/mL), the MIC [43] was 8.58 µM (≈ 12.5 µg/mL) and the MIC [44] was 50 µM (≈ 72.8 µg/mL).
